Legend:
Conditions in all cases: 72 h
Caco-2 [1] = test: drug sensitivity score (DSS) for viability; higher = more toxic; extreme values may be limits of the assay
Calu-3 [2] = test: as above
HepG2 [3] = test: as above
U2OS [4] = test: as above
Caco-2 [5] = test: relative viability EC50 (midpoint between 100% and the lowest measured viability); higher = less toxic
Calu-3 [6] = test: as above
HepG2 [7] = test: as above
U2OS [8] = test: as above
Caco-2 [9] = test: cell viability relative to DMSO; higher = less toxic
Calu-3 [10] = test: as above
HepG2 [11] = test: as above
U2OS [12] = test: as above
Vero E6 [13] = test: drug sensitivity score (DSS) for viability; higher = more toxic; extreme values may be limits of the assay
Vero E6 [14] = test: relative viability EC50 (midpoint between 100% and the lowest measured viability); higher = less toxic
Vero E6 [15] = test: cell viability relative to DMSO; higher = less toxic

SMILES	drug sensitivity score (Caco-2 [1])	drug sensitivity score (Calu-3 [2])	drug sensitivity score (HepG2 [3])	drug sensitivity score (U2OS [4])	relative viability EC50 (Caco-2 [5])	relative viability EC50 (Calu-3 [6])	relative viability EC50 (HepG2 [7])	relative viability EC50 (U2OS [8])	cell viability (Caco-2 [9]; 1 nM)	cell viability (Caco-2 [9]; 10 nM)	cell viability (Caco-2 [9]; 100 nM)	cell viability (Caco-2 [9]; 1000 nM)	cell viability (Caco-2 [9]; 10000 nM)	cell viability (Calu-3 [10]; 1 nM)	cell viability (Calu-3 [10]; 10 nM)	cell viability (Calu-3 [10]; 100 nM)	cell viability (Calu-3 [10]; 1000 nM)	cell viability (Calu-3 [10]; 10000 nM)	cell viability (HepG2 [11]; 1 nM)	cell viability (HepG2 [11]; 10 nM)	cell viability (HepG2 [11]; 100 nM)	cell viability (HepG2 [11]; 1000 nM)	cell viability (HepG2 [11]; 10000 nM)	cell viability (U2OS [12]; 1 nM)	cell viability (U2OS [12]; 10 nM)	cell viability (U2OS [12]; 100 nM)	cell viability (U2OS [12]; 1000 nM)	cell viability (U2OS [12]; 10000 nM)	drug sensitivity score (Vero E6 [13])	relative viability EC50 (Vero E6 [14])	cell viability (Vero E6 [15]; 1 nM)	cell viability (Vero E6 [15]; 10 nM)	cell viability (Vero E6 [15]; 100 nM)	cell viability (Vero E6 [15]; 1000 nM)	cell viability (Vero E6 [15]; 10000 nM)
C[C@H](N)C(=O)N[C@@]1(C(=O)O)C[C@@H](Sc2nnc[nH]2)[C@H]2[C@H](C(=O)O)[C@H]21	0	0	0	0	> 10 µM	> 10 µM	> 10 µM	> 10 µM	108%	100%	103%	98.9%	101%	102%	92.6%	96.1%	114%	110%	101%	94.7%	99.6%	110%	91%	105%	96.9%	105%	100%	104%	–	–	–	–	–	–	–
Cc1cc(C)c(CNC(=O)c2cc(-c3ccc(CN4CCOCC4)cc3)cc3c2cnn3C2CCCC2)c(=O)[nH]1	0	0	0.5	0	> 10 µM	> 10 µM	> 10 µM	> 10 µM	102%	94.2%	96.4%	91.1%	92%	98%	96.9%	104%	92%	96.3%	108%	102%	100%	97.3%	85.3%	99%	94.5%	101%	94.4%	98.7%	–	–	–	–	–	–	–
Cc1cc(C)c(N)c(C#Cc2cccc(F)c2)n1	2.2	0	0.7	0	–	> 10 µM	> 10 µM	> 10 µM	99.6%	88.9%	101%	93.2%	71.6%	104%	102%	95.9%	102%	87.7%	95.3%	98.4%	81.6%	88.1%	90.7%	102%	97.5%	102%	97.3%	90.9%	0	> 10 µM	99.5%	106%	98.6%	103%	90.8%
Cc1cnc(NC(=O)Nc2cc(Br)c(C)cc2OC[C@@H]2CNCCO2)cn1	5.4	4.5	8.6	10.2	1.73 µM	–	0.764 µM	1.2 µM	102%	94.7%	96.9%	87.5%	37.8%	90.7%	106%	102%	76.9%	63%	106%	104%	97.9%	59.1%	33.7%	100%	99.2%	98%	62.2%	4.8%	1.7	–	101%	105%	102%	97.2%	71.1%
Cc1nc2ccc(-n3ncc(C(=O)c4cc5ccccc5[nH]4)c3N)cc2[nH]1	0.8	0.7	0.7	1.9	> 10 µM	> 10 µM	> 10 µM	> 10 µM	100%	94.5%	92.9%	86.4%	89.3%	100%	86.9%	98.4%	87.6%	84.7%	94.6%	99%	87.3%	104%	76.2%	99%	94.5%	97.8%	84.1%	84.3%	2.2	–	96.5%	96%	93.6%	89.4%	69%
Nc1nc(NCCc2ccc(O)cc2)nc2nc(-c3ccco3)nn12	0.9	0	9.7	0	–	> 10 µM	0.648 µM	> 10 µM	97.2%	94.5%	103%	104%	72.5%	96.1%	110%	97.3%	98.2%	106%	109%	98.6%	103%	49.2%	32.2%	99.5%	103%	102%	103%	94.5%	0	> 10 µM	95.1%	95.3%	98.1%	94.6%	95%
FC(F)(F)Oc1ccc2nc(-c3ccc(OCCOCCOc4ccc(-c5nc6ccc(OC(F)(F)F)cc6[nH]5)nc4)cn3)[nH]c2c1 [AI-10-49]	4.2	0	8.2	1.5	–	> 10 µM	1.37 µM	> 10 µM	95.2%	95.4%	90.9%	82%	56.7%	109%	95.7%	98.2%	98.3%	93.3%	94.7%	93.6%	103%	74.6%	18.7%	98.5%	98.6%	101%	90.5%	80.7%	5.6	–	102%	97%	93.3%	72.8%	56.2%
c1ccc(-c2oc3ncnc(NC[C@@H]4CCCO4)c3c2-c2ccccc2)cc1 [AIM-100]	1	1.3	0	0	–	–	> 10 µM	> 10 µM	115%	92.6%	96.6%	104%	71.3%	106%	92.2%	96.6%	97.7%	74.7%	83.4%	98.6%	99.8%	97.4%	95.6%	103%	102%	105%	101%	95.5%	0	> 10 µM	90.2%	98.6%	96.6%	87.2%	95.9%
COCCOc1cnc2ccn([C@H](C)c3nnc4c(F)cc(-c5cnn(C)c5)cn34)c(=O)c2c1 [AMG-337]	0	0	0	0	> 10 µM	> 10 µM	> 10 µM	> 10 µM	104%	103%	92.9%	101%	97.2%	101%	89%	98.4%	114%	95.2%	100%	102%	99.2%	91.5%	93.5%	93%	99.1%	102%	98%	100%	–	–	–	–	–	–	–
C#CC[C@H](c1nc2cc(Cl)ccc2c(=O)n1Nc1ccccc1)N(CCCN)C(=O)c1cccc(Cl)c1F [ARQ-621]	3.1	2.1	8.5	4.2	–	> 10 µM	0.929 µM	2.23 µM	101%	96.6%	93.6%	81.7%	73%	105%	101%	104%	86.7%	78%	93.7%	100%	94.5%	62.2%	26.6%	103%	98.9%	101%	93.4%	42.3%	2.3	–	102%	100%	96.2%	101%	54.9%
CNC(=O)CN1CCC(Oc2cc3c(Nc4cccc(Cl)c4F)ncnc3cc2OC)CC1 [AZD8931]	4.6	18.2	0.5	0.1	–	0.0843 µM	> 10 µM	> 10 µM	96.5%	93.7%	90.2%	77.7%	65.5%	109%	80.5%	60.7%	33.8%	22.5%	106%	95.7%	87.8%	95.2%	85.2%	95.4%	94.8%	93.6%	89.6%	87.9%	10.2	0.233 µM	97.2%	97.7%	78.3%	58.5%	42.1%
Cc1cc(-c2nc(-c3ccc(OC(F)(F)F)cc3)no2)nn1Cc1ccnc(N2CCN(C3CC3)CC2)c1 [BAY-87-2243]	8	0.2	31.4	6.5	–	> 10 µM	0.0071 µM	–	99.4%	99%	73.7%	74.7%	71.1%	98.5%	94.4%	92.9%	87.7%	92%	93.1%	50.4%	20.8%	17.8%	18.7%	97.3%	95.3%	81.5%	73.5%	66.6%	0.4	> 10 µM	95.8%	98.8%	94.3%	91%	85.1%
O=C1c2ccccc2CCC1CNCCc1ccc(O)cc1 (centres undefined) [BE-2254]	0	0	3	0	> 10 µM	> 10 µM	3.45 µM	> 10 µM	104%	100%	99.5%	104%	98%	106%	93.3%	95.7%	101%	96.2%	114%	96%	96.7%	103%	39.1%	95.8%	97.3%	100%	99.3%	95.5%	–	–	–	–	–	–	–
COc1ccc2c(c1)c(CC(=O)N1CCOCC1)c(C)n2C(=O)c1ccc(Cl)cc1 [BML-190]	0.2	0	0.5	0	> 10 µM	> 10 µM	> 10 µM	> 10 µM	91.4%	109%	96.7%	101%	85.6%	106%	106%	92.7%	108%	96.9%	102%	102%	104%	88%	94.8%	96.2%	101%	106%	99.3%	112%	–	–	–	–	–	–	–
Cc1nc(C#Cc2ccnc(Cl)c2)c(C)n1-c1ccc(OC(F)(F)F)cc1 [CTEP]	4	0	0.2	2.1	–	> 10 µM	> 10 µM	–	93.9%	107%	86.9%	84.6%	55.8%	99.2%	101%	93%	96.5%	92.3%	100%	88.6%	100%	91.5%	85.1%	94.6%	98.2%	95.5%	100%	58.2%	0	> 10 µM	102%	100%	91.8%	102%	94.5%
